We go through 15 compounds from ChEMBL document CHEMBL1926654, “Design and synthesis of novel β-diketo derivatives as HIV-1 integrase inhibitors” (Bioorg Med Chem, 2012).

Series [1] has as its target Human immunodeficiency virus type 1 integrase (Human immunodeficiency virus 1, UniProt Q7ZJM1). Description: Inhibition of Human immunodeficiency virus 1 integrase-mediated strand transfer activity after 1 hr.
Series [2] is described as follows: Cytotoxicity against human TZM-bl cells after 48 hrs by MTT assay. It counts as cell-based. (In general: Formazan colour is commonly taken as a measure of viable cells.)
Series [3] concerns Human immunodeficiency virus 1. The series is described as follows: Antiviral activity against Human immunodeficiency virus 1 infected in human TZM-bl cells assessed as inhibition of viral replication after 48 hrs by inverted microscopic analysis. Type of series: functional, organism-based. The note with it: Human immunodeficiency virus 1, TZM-bl.
Series [4] is described as follows: Therapeutic index, ratio of CC50 for human TZM-bl cells to EC50 for Human immunodeficiency virus 1. Type of series: cell-based. The note with it: read-out: Ratio CC50/EC50.

As a reminder, the IC50 is the concentration that inhibits the measured activity by half. Higher therefore signals weaker potency. One may read the CC50 as the concentration that lowers cell viability or growth by half. Lower therefore signals harm at low concentration. For orientation: EC50 means the midpoint of the concentration-response curve.

Sequence of Human immunodeficiency virus type 1 integrase (Q7ZJM1 whole entry): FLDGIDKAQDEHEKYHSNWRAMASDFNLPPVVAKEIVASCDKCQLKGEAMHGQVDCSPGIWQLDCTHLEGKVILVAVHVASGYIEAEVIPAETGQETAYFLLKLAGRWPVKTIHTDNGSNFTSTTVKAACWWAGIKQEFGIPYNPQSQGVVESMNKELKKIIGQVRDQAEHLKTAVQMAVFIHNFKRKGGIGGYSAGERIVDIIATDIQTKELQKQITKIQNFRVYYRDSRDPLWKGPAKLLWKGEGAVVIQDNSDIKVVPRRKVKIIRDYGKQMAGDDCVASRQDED

For `Cc1c(C(=O)/C=C(\O)c2ccc(O)c(O)c2)nnn1Cc1ccc(F)cc1`, in series [1], the IC50 amounted to 40 µM.
In the case of `Cc1nnc(C(=O)NC(C)(C)c2nc(C(=O)NCc3ccc(F)cc3)c(O)c(=O)n2C)o1`, in series [2], the 50% cytotoxic concentration (CC50) at 48 h is over 30 µM. Further, the EC50 in series [3] was determined as 0.025 µM.
`Cc1c(C(=O)/C=C(\O)c2ccc(O)c(O)c2)nnn1Cc1cccc(F)c1` returned an IC50 in series [1] of 32 µM.
The same measure, in the same setting: with `COc1ccc(/C(O)=C/C(=O)c2nnn(Cc3ccc(F)cc3)c2C)cc1` the figure was over 54 µM; with `COc1ccc(/C(O)=C/C(=O)c2nnn(Cc3cccc(F)c3)c2C)cc1`, over 54 µM; with `Cc1c(C(=O)/C=C(\O)c2ccc(O)cc2)nnn1Cc1cccc(F)c1`, over 56 µM.
`COc1cc(/C(O)=C/C(=O)c2nnn(Cc3ccc(F)cc3)c2C)cc(OC)c1OC` returned an IC50 in series [1] of over 47 µM.
Consider `Cc1c(C(=O)/C=C(\O)c2cc(O)c(O)c(O)c2)nnn1Cc1cccc(F)c1`, for which the selectivity ratio in series [4] came out at 5. This compound had an IC50 in series [1] of 0.78 µM. In addition, the midpoint of cytotoxicity in series [2], the CC50 at 48 h, lay at 36.6 µM. The 50% effective concentration (EC50) in series [3] amounted to 7.32 µM.
In turn, `Cc1c(C(=O)/C=C(\O)c2ccccc2)nnn1Cc1cccc(F)c1` gave an IC50 in series [1] of over 59 µM.
Consider `Cc1c(C(=O)/C=C(\O)c2cc(O)c(O)c(O)c2)nnn1Cc1ccc(F)cc1`, for which the selectivity ratio in series [4] was found to be 3.7. The IC50 in series [1] is 2.6 µM. In addition, in series [2], half-maximal cytotoxicity (CC50 at 48 h) was put at 33.4 µM. Moreover, the EC50 in series [3] is 8.92 µM.
Compound `COc1ccc(/C(O)=C/C(=O)c2nnn(Cc3ccc(F)cc3)c2C)cc1OC` registered a concentration for half-maximal inhibition (IC50) in series [1] of over 50 µM.
Still for that read-out and setting: with `COc1cc(/C(O)=C/C(=O)c2nnn(Cc3cccc(F)c3)c2C)cc(OC)c1OC` the figure was over 47 µM; with `Cc1c(C(=O)/C=C(\O)c2ccccc2)nnn1Cc1ccc(F)cc1`, over 59 µM; with `COc1ccc(/C(O)=C/C(=O)c2nnn(Cc3cccc(F)c3)c2C)cc1OC`, over 50 µM.
The same measure, in the same setting: with `Cc1c(C(=O)/C=C(\O)c2ccc(O)cc2)nnn1Cc1ccc(F)cc1` the figure was over 56 µM.
